Laboratory results as given in patent publication US12084479B2, “Modified antimicrobial peptide derived from an arginine-rich domain” (priority 2016, dated 2024).
Read-outs that look alike come from different tables or passages of the source. Where a SMILES comes first, the peptide text is derived from it. Where no end group is shown, it is not given here. [ ]: non-standard residue; d: D form.

Assays:
[1] = In vivo toxicity (survival, serum ALT); design: species or system ICR mice; conditions: for serum ALT level compared with polymyxin B: day 1
Procedure: FIG. 7 is a set of graphs showing lower in vivo toxicity of HBcARD peptide D-150-177C in comparison with polymyxin B. At day 0, male ICR mice (5 mice/group) were ip. injected with different doses of D-150-177C peptide (20-80 mg/kg) and polymyxin B (50 mg/kg), respectively. (A) The survival rates of all groups were monitored for 7 days. (B) Serum samples collected from mice treated with D-150-177C and polymyxin B were determined for alanine aminotransferase activity (ALT) at day 1. The dash line represents the mean of ALT value (45 U/L) of ICR mice (Charles River Laboratories).
Using the sepsis mouse model, we examined the survival rates of ICR mice intraperitoneally (i.p.) injected with the 28-mer D-150-177C peptide (20-80 mg/kg body weight) and polymyxin B (a colistin-related compound) (50 mg/kg body weight). […] See FIG. 7, A. When the doses were increased to 60 and 80 mg/kg, survival rates of mice were decreased to 80% and 40%, respectively. See, FIG. 7, A. Liver injury can be detected by the serum ALT level.

K. pneumoniae = type: cell-based, Klebsiella pneumoniae
Procedure: (§1) The antimicrobial activities of HBcARD peptides were tested using a number of bacterial strains, including Pseudomonas aeruginosa Migula strains (ATCC 27853, ampicillin-resistant and ATCC 9027, ampicillin-resistant), Klebsiella pneumoniae strain (ATCC 13884), Shigella dysenteriae Xen27 (Caliper Co.), Escherichia coli strain (ATCC 25922), Staphylococcus aureus subsp. strains (ATCC 25923, methicillin-resistantATCC 29213, methicillin-resistant and ATCC 19636, methicillin-resistant) and Acinetobacter baumannii strains (ATCC 17978, ATCC 17978 CR, ATCC19606, ATCC 19606 CR, TCGH 45530 and TCGH 46709). Clinical isolates TCGH 45530 and TCGH 46709 were obtained from Tzu-Chi Buddhist General Hospital (TCGH) in Taiwan, and were identified using the Vitek system (Biomerieux Vitek, Inc., Hazelwood, MO, USA). See Chang et al. (2012), J Microbiol Immunol Infect 45:37-42 doi:10.1016/j.jmii.2011.09.019.
(§2) L- and D-HBcARD peptides were purchased from Yao-Hong Biotechnology Inc. (Taipei, Taiwan). Antimicrobial activity was determined as described. See, Chen et al., 2013. Briefly, bacteria were grown in MH broth (Difco) to mid-logarithmic phase at 37° C., and were diluted to 10^6 CFU (colony formation unit)/ml in phosphate buffer (10 mM sodium phosphate and 50 mM sodium chloride, pH 7.2). Peptides were serially diluted in the same buffer. Fifty microliters (μl) of bacteria were mixed with fifty μl of peptides at varying concentrations, followed by incubation at 37° C. for 3 hours without shaking. At the end of incubation, bacteria were placed on Mueller-Hinton broth agar plates, and allowed to grow at 37° C. overnight for measurement of minimal bactericidal concentration (MBC).
(§3) All peptides were tested in triplicate.

P. aeruginosa = type: cell-based, Pseudomonas aeruginosa
Procedure: as §1, §2, §3

A. baumannii = type: cell-based, Acinetobacter baumannii
Procedure: as §1, §2, §3

S. aureus = type: cell-based, Staphylococcus aureus
Procedure: as §1, §2, §3

S. aureus ATCC 19636 = assay: Mouse sepsis model infected with S. aureus, in vivo protection efficacy; design: species or system ICR mice; conditions: for survival (mice protected from death): S. aureus 4×10^6 CFU/mouse i.p., monitored 7 days; for in vivo protection efficacy, compared between peptides: mouse sepsis model, FIG. 8 (5 mg/kg) and FIG. 9 (different doses)
Procedure: To investigate the in vivo protection efficacy of the 37-mer L- and D-HBcARD peptides, we performed a mouse sepsis model infected with S. aureus. ICR mice were first i.p. inoculated with S. aureus (4×10^6 CFU/mouse), followed by one single i.p. injection of L-HBcARD, D-HBcARD and PBS at two hours post-inoculation, respectively. All mice (n=10) administered with PBS died at day 1. See FIG. 4, A. At 7 days post-inoculation, 40% of mice treated with L-HBcARD (10 mg/kg) survived. See FIG. 4, A. In contrast, D-HBcARD peptide was able to achieve a much higher survival rate (60% for 5 mg/kg dose, and 100% for 10 mg/kg dose).
We compared the in vivo protection efficacy of HBcARD 150-177C peptides (28-mer) containing either D-form or L-form arginines. ICR mice (n=10/group) were ip. inoculated with S. aureus ATCC19636 (4×10^6/mouse), followed by treatment with modified peptides at two hours post-inoculation. All PBS control mice died on day 1, and only 20% of the mice treated with control peptide (150-177Q) survived. Administration of L-150-177C peptide at the dose of 5 and 10 mg/kg protected 30% and 70% mice from death, respectively. When treated with 5 mg/kg of D-150-177C, all mice (100%) survived.
Three-week old male ICR mice (19 to 21 g) were purchased from BioLASCO (Taiwan). To test the in vivo protection efficacy of the HBcARD peptides, all mice were inoculated intraperitoneally with S. aureus ATCC 19636 (4×10^6 CFU/mouse). HBc147-183 (L- or D-HBcARD) or the PBS control was administered intraperitoneally at 2 hours after bacterial inoculation, respectively. Each group contained 10 mice. Mortality was monitored daily for 7 days following the bacterial inoculation.

E. coli = type: cell-based, Escherichia coli; conditions: for Minimal bactericidal concentration: E. coli ATCC 25922
Procedure: as §1, §2, §3

[2] = 5 mg/kg single i.p. injection 2 hours post-inoculation

C[C@@H](O)[C@H](NC(=O)[C@@H](CCCNC(=N)N)NC(=O)[C@@H](CCCNC(=N)N)NC(=O)[C@@H](CCCNC(=N)N)NC(=O)[C@@H]1CCCN1C(=O)[C@H](CO)NC(=O)[C@@H](CCCNC(=N)N)NC(=O)CNC(=O)[C@@H](CCCNC(=N)N)NC(=O)[C@@H](CCCNC(=N)N)NC(=O)[C@H](N)CCCNC(=N)N)C(=O)N1CCC[C@H]1C(=O)N[C@@H](CO)C(=O)N1CCC[C@H]1C(=O)N[C@H](CCCNC(=N)N)C(=O)N[C@H](CCCNC(=N)N)C(=O)N[C@H](CCCNC(=N)N)C(=O)N[C@H](CCCNC(=N)N)C(=O)N[C@@H](CO)C(=O)N[C@@H](CCC(N)=O)C(=O)N[C@@H](CO)C(=O)N1CCC[C@H]1C(=O)N[C@H](CCCNC(=N)N)C(=O)N[C@H](CCCNC(=N)N)C(=O)N[C@H](CCCNC(=N)N)C(=O)N[C@H](CCCNC(=N)N)C(=O)N[C@@H](CO)C(=O)N[C@@H](CS)C(=O)O [D-150-177C, rrrGrSPrrrTPSPrrrrSQSPrrrrSC] (H-[dR][dR][dR]G[dR]SP[dR][dR][dR]TPSP[dR][dR][dR][dR]SQSP[dR][dR][dR][dR]SC-OH; N-terminus and C-terminus assumed)
survival rate ([1]; 60 mg/kg i.p., monitored 7 days): 80%
serum ALT level compared with polymyxin B ([1]; 60 mg/kg, p<0.01): significantly higher
survival rate ([1]; 80 mg/kg i.p., monitored 7 days): 40%
acute toxicity ([1]; 20 and 40 mg/kg i.p., monitored 7 days): no acute toxicity
serum ALT level compared with polymyxin B ([1]; 20 to 40 mg/kg, p value insignificant): higher ALT level than polymyxin B

RKPRGLEPRRRKVKTTVVYGRRRSKSRERRAPTPQR [Duck HBcARD]
Minimal bactericidal concentration (K. pneumoniae): >70.6 mg/L
Minimal bactericidal concentration (P. aeruginosa): >70.6 mg/L
Minimal bactericidal concentration (A. baumannii): 70.6 mg/L

RKPRGLEPRRRKVKTTVVYGRRRSKSRGRRSSPSQR [Heron HBcARD]
Minimal bactericidal concentration (K. pneumoniae): >69.3 mg/L
Minimal bactericidal concentration (P. aeruginosa): >69.3 mg/L
Minimal bactericidal concentration (A. baumannii): 69.3 mg/L

RRRGRSPRRRTPSPRRRRC [150-168C]
MBC (S. aureus; S. aureus ATCC19636): none of these peptides showed detectable activity

RRRGRSPRRRTPSPRRRRSQSPRRRRSC [150-177C]
survival (mice protected from death) (S. aureus ATCC 19636; [2]): 30%
survival (mice protected from death) (S. aureus ATCC 19636; 10 mg/kg single i.p. injection 2 hours post-inoculation): 70%
MBC (S. aureus): 2 µM
MBC (S. aureus; S. aureus ATCC19636, listed as HBcARD 150-177C): rescued the bactericidal activity
MBC (P. aeruginosa): 2 µM
MBC (E. coli): 2 µM

RRRGRSPRRRTPSPRRRRSQSPRRRRSQ [150-177Q]
survival (S. aureus ATCC 19636; control peptide, dose not given, treatment 2 hours post-inoculation): 20%
MBC (S. aureus; S. aureus ATCC19636, listed as HBcARD 150-177Q): no detectable bactericidal activity

RRRRSQSPRRRRSC [164-177C]
MBC (S. aureus; S. aureus ATCC19636): none of these peptides showed detectable activity

RRRTPSPRRRRSQSPRRRRC [157-176C]
MBC (S. aureus; S. aureus ATCC19636): none of these peptides showed detectable activity

RrRGRSPRrRTPSPRrRrSQSPRrRrSC (R[dR]RGRSPR[dR]RTPSPR[dR]R[dR]SQSPR[dR]R[dR]SC) [LD-150-177C]
survival (mice protected from death) (S. aureus ATCC 19636; [2]): 80%
in vivo protection efficacy, compared between peptides (S. aureus ATCC 19636): less than DL-150-177C

TIVRRRGGSRATRSPRRRTPSPRRRRSQSPRRRRSQSPASSNC [Bat HBcARD]
Minimal bactericidal concentration (K. pneumoniae; K. pneumoniae ATCC 13884): 5 mg/L
Minimal bactericidal concentration (S. aureus; S. aureus ATCC19636): 20 mg/L
Minimal bactericidal concentration (P. aeruginosa; P. aeruginosa ATCC 9027): 10 mg/L
Minimal bactericidal concentration (A. baumannii; A. baumannii ATCC 17978): 2.5 mg/L
Minimal bactericidal concentration (E. coli): 20 mg/L

TVIRRRGGARASRSPRRRTPSPRRRRSQSPRRRRSQSPSANC [Woodchuck HBcARD]
Minimal bactericidal concentration (K. pneumoniae; K. pneumoniae ATCC 13884): 9.8 mg/L
Minimal bactericidal concentration (S. aureus; S. aureus ATCC19636): 19.6 mg/L
Minimal bactericidal concentration (P. aeruginosa; P. aeruginosa ATCC 9027): 9.8 mg/L
Minimal bactericidal concentration (A. baumannii; A. baumannii ATCC 17978): 4.9 mg/L
Minimal bactericidal concentration (E. coli): 19.6 mg/L

polymyxin B [reference compound]
survival outcome after i.p. injection ([1]; 50 mg/kg body weight i.p.): died at day one

rRrGRPrRrPPrRrRQPrRrRC ([dR]R[dR]GRP[dR]R[dR]PP[dR]R[dR]RQP[dR]R[dR]RC) [DL-dST-150-177C]
in vivo protection efficacy, compared between peptides (S. aureus ATCC 19636): remarkably improved protection efficacy compared to the 28-mers DL-150-177C and L-150-177C

rRrGRSPrRrTPSPrRrRSQSPrRrRSC ([dR]R[dR]GRSP[dR]R[dR]TPSP[dR]R[dR]RSQSP[dR]R[dR]RSC) [DL-150-177C]
survival (mice protected from death) (S. aureus ATCC 19636; [2]): protected all S. aureus-infected mice from death
in vivo protection efficacy, compared between peptides (S. aureus ATCC 19636): very similar protection efficacy to all-D-arginine substituted peptide D-150-177C
